What was measured:
[1] = system: MALME-3M; test: NCI antiproliferative SRB assay, Melanoma panel; assay type: cell-based, Human
[2] = system: LOX IMVI; test: NCI antiproliferative SRB assay, Melanoma panel; assay type: cell-based, Human
[3] = system: NCI-H460; test: NCI antiproliferative SRB assay, Non-Small Cell Lung Cancer panel; assay type: cell-based, Human
[4] = system: EKVX; test: as above; assay type: cell-based, Human
[5] = system: TK-10; test: NCI antiproliferative SRB assay, Renal Cancer panel; assay type: cell-based, Human
[6] = system: HOP-92; test: NCI antiproliferative SRB assay, Non-Small Cell Lung Cancer panel; assay type: cell-based
[7] = system: OVCAR-8; test: NCI antiproliferative SRB assay, Ovarian Cancer panel; assay type: cell-based, Human
[8] = system: SW-620; test: NCI antiproliferative SRB assay, Colon Cancer panel; assay type: cell-based, Human
[9] = system: OVCAR-4; test: NCI antiproliferative SRB assay, Ovarian Cancer panel; assay type: cell-based, Human
[10] = system: SF-295; test: NCI antiproliferative SRB assay, CNS Cancer panel; assay type: cell-based, Human
[11] = system: Non-Small Cell Lung Cancer cell line panel; test: NCI antiproliferative assay, panel summary; assay type: cell-based, Human
[12] = system: UACC-257; test: NCI antiproliferative SRB assay, Melanoma panel; assay type: cell-based, Human
[13] = system: COLO 205; test: NCI antiproliferative SRB assay, Colon Cancer panel; assay type: cell-based, Human
[14] = system: SK-MEL-28; test: NCI antiproliferative SRB assay, Melanoma panel; assay type: cell-based, Human
[15] = target: T1, EGFR (Homo sapiens, UniProt P00533); test: Spectrophotometric assay for EGFR tyrosine kinase inhibition in A431 cells; assay type: cell-based; settings: absorbance at 540 nm
T1 construct: tested for anti-EGFR activity in human A431 cells, which express high levels of EGFR protein; endogenous in cells; host or cells: human A431 cells
T1 sequence (P00533 25-1210): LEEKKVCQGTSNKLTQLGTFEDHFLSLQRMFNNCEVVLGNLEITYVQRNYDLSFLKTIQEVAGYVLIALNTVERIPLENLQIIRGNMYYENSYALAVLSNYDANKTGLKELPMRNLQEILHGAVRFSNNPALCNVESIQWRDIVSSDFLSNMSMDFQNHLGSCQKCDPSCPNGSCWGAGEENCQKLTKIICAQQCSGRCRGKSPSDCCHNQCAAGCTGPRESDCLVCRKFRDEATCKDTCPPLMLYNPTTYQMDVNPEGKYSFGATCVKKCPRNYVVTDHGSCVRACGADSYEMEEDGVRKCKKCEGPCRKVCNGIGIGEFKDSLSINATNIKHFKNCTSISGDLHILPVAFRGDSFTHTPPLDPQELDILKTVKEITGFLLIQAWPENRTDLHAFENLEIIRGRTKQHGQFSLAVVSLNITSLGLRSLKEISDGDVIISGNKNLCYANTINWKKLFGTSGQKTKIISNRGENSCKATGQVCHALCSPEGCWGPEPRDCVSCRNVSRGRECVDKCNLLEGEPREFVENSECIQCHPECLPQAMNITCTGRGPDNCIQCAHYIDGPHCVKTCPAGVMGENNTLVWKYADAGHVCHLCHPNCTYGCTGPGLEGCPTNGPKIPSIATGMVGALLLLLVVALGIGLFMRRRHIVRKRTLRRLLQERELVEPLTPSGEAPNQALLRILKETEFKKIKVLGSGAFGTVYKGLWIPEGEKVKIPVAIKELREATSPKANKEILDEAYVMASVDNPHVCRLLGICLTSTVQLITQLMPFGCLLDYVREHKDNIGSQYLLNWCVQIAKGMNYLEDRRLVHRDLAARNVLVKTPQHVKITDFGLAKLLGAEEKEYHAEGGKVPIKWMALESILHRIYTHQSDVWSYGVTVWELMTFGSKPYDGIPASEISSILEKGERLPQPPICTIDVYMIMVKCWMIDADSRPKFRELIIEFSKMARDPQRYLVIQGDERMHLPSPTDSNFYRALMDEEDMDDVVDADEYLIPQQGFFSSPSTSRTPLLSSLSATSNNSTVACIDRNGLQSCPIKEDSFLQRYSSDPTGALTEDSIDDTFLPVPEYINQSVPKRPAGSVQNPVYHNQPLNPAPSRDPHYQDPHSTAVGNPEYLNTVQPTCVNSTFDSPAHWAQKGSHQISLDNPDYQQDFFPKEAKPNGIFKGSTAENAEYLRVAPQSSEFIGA

[16] = system: Renal Cancer cell line panel; test: NCI antiproliferative assay, panel summary; assay type: cell-based, Human; settings: Renal Cancer panel
[17] = system: OVCAR-3; test: NCI antiproliferative SRB assay, Ovarian Cancer panel; assay type: cell-based, Human
[18] = system: HL-60(TB); test: cells; assay type: cell-based
[19] = system: NCI/ADR-RES; test: NCI antiproliferative SRB assay, Ovarian Cancer panel; assay type: cell-based, Human
[20] = system: SK-MEL-5; test: NCI antiproliferative SRB assay, Melanoma panel; assay type: cell-based, Human
[21] = system: NCI-H522; test: NCI antiproliferative SRB assay, Non-Small Cell Lung Cancer panel; assay type: cell-based, Human
[22] = system: SNB-75; test: NCI antiproliferative SRB assay, CNS Cancer panel; assay type: cell-based, Human
[23] = system: 786–0; test: NCI antiproliferative SRB assay, Renal Cancer panel; assay type: cell-based, Human
[24] = system: K-562; test: NCI antiproliferative SRB assay, Leukemia panel; assay type: cell-based, Human
[25] = Homo sapiens, 5-dose 0.01-100 µM
[26] = Homo sapiens, 5-dose 0.01-100 µM, read-out: LC50 (the source's name)
[27] = Homo sapiens, 5-dose assay, read-out: Sub Panel MID b (mean GI50 of panel)

`COc1ccc(NC(=O)n2nc(/C=C/c3ccc(O)c(OC)c3)cc2/C=C/c2ccc(O)c(OC)c2)cc1` [3b] showed a TGI ([1]; 5-dose 0.01-100 µM) of 38.6 µM, a GI50 [1, 25] of 3.66 µM and a CC50 [1, 26] greater than 100 µM. For the same compound, the “%GI” value ([1]; one dose 10 µM) was 48.14%, the “GP (growth percent)” value ([1]; one dose 10 µM) was 51.86 and the TGI ([2]; 5-dose 0.01-100 µM) was greater than 100 µM. For the same compound, the GI50 [2, 25] was 3.95 µM, the CC50 [2, 26] was greater than 100 µM and the “%GI” value ([2]; one dose 10 µM) was 72.41%. For the same compound, the “GP (growth percent)” value ([2]; one dose 10 µM) was 27.59, the TGI ([3]; 5-dose 0.01-100 µM) was 31.4 µM and the GI50 [3, 25] was 4.24 µM. For the same compound, the CC50 [3, 26] was greater than 100 µM, the “%GI” value ([3]; one dose 10 µM) was 85.78% and the “GP (growth percent)” value ([3]; one dose 10 µM) was 14.22. It also gave a TGI ([4]; 5-dose 0.01-100 µM) of 83.7 µM, a GI50 [4, 25] of 6.62 µM and a CC50 [4, 26] greater than 100 µM. The “%GI” value ([4]; one dose 10 µM) was 47.61%, the “GP (growth percent)” value ([4]; one dose 10 µM) was 52.39 and the TGI ([5]; 5-dose 0.01-100 µM) was 95.3 µM. The GI50 [5, 25] was 10.2 µM, the CC50 [5, 26] was greater than 100 µM and the “%GI” value ([5]; one dose 10 µM) was 36.16%. The “GP (growth percent)” value ([5]; one dose 10 µM) was 63.84, the TGI ([6]; 5-dose 0.01-100 µM) was greater than 100 µM and the GI50 ([6]; Homo sapiens, 5-dose 0.01-100 µM, read-out: GI50) was 7.77 µM. The CC50 [6, 26] was greater than 100 µM, the “%GI” value ([6]; one dose 10 µM) was 10.93% and the “GP (growth percent)” value ([6]; one dose 10 µM) was 89.07. For the same compound, the TGI ([7]; 5-dose 0.01-100 µM) was 59.9 µM, the GI50 [7, 25] was 5.32 µM and the CC50 [7, 26] was greater than 100 µM. For the same compound, the “%GI” value ([7]; one dose 10 µM) was 67.21%, the “GP (growth percent)” value ([7]; one dose 10 µM) was 32.79 and the TGI ([8]; 5-dose 0.01-100 µM) was 61.6 µM. The GI50 [8, 25] was 5.51 µM, the CC50 [8, 26] was greater than 100 µM and the “%GI” value ([8]; one dose 10 µM) was 72.90%. For the same compound, the “GP (growth percent)” value ([8]; one dose 10 µM) was 27.10, the TGI ([9]; 5-dose 0.01-100 µM) was 90.7 µM and the GI50 [9, 25] was 5.72 µM. The CC50 [9, 26] was greater than 100 µM, the “%GI” value ([9]; one dose 10 µM) was 48.49% and the “GP (growth percent)” value ([9]; one dose 10 µM) was 51.51. The TGI ([10]; 5-dose 0.01-100 µM) was 53.2 µM, the GI50 [10, 25] was 6.25 µM and the CC50 [10, 26] was greater than 100 µM. For the same compound, the “%GI” value ([10]; one dose 10 µM) was 48.38%, the “GP (growth percent)” value ([10]; one dose 10 µM) was 51.62 and the “Mean % GI” value ([11]; 10 µM) was 56.51%. The “Selectivity Ratio (MID a:MID b)” value ([11]; 5-dose assay) was 0.92, the GI50 [11, 27] was 5.32 µM and the TGI ([12]; 5-dose 0.01-100 µM) was 64.8 µM. For the same compound, the GI50 [12, 25] was 16.7 µM, the CC50 [12, 26] was greater than 100 µM and the “%GI” value ([12]; one dose 10 µM) was 24.78%. For the same compound, the “GP (growth percent)” value ([12]; one dose 10 µM) was 75.22, the TGI ([13]; 5-dose 0.01-100 µM) was 44.3 µM and the GI50 [13, 25] was 16.2 µM. For the same compound, the CC50 [13, 26] was greater than 100 µM, the “%GI” value ([13]; one dose 10 µM) was −6.58% and the “GP (growth percent)” value ([13]; one dose 10 µM) was 106.58. It also gave a TGI ([14]; 5-dose 0.01-100 µM) of 92.7 µM, a GI50 [14, 25] of 3.52 µM and a CC50 [14, 26] greater than 100 µM. The “%GI” value ([14]; one dose 10 µM) was 65.47%, the “GP (growth percent)” value ([14]; one dose 10 µM) was 34.53 and the IC50 [15] was 3.89 µM. The GI50 [16, 27] was 5.84 µM, the “Mean % GI” value ([16]; 10 µM) was 60.54% and the “Selectivity Ratio (MID a:MID b)” value ([16]; 5-dose assay) was 0.84. For the same compound, the TGI ([17]; 5-dose 0.01-100 µM) was 8.40 µM, the GI50 [17, 25] was 2.98 µM and the CC50 [17, 26] was greater than 100 µM. For the same compound, the “%GI” value ([17]; one dose 10 µM) was 86.38%, the “GP (growth percent)” value ([17]; one dose 10 µM) was 13.62 and the TGI ([18]; 5-dose 0.01-100 µM) was 6.69 µM. For the same compound, the GI50 [18, 25] was 2.55 µM, the CC50 [18, 26] was greater than 100 µM and the “%GI” value ([18]; one dose 10 µM) was 94.68%. For the same compound, the “GP (growth percent)” value ([18]; one dose 10 µM) was 5.32, the TGI ([19]; 5-dose 0.01-100 µM) was greater than 100 µM and the GI50 [19, 25] was 4.28 µM. For the same compound, the CC50 [19, 26] was greater than 100 µM, the “%GI” value ([19]; one dose 10 µM) was 76.11% and the “GP (growth percent)” value ([19]; one dose 10 µM) was 23.89. The TGI ([20]; 5-dose 0.01-100 µM) was 16.1 µM, the GI50 [20, 25] was 3.67 µM and the CC50 [20, 26] was greater than 100 µM. For the same compound, the “%GI” value ([20]; one dose 10 µM) was 90.96%, the “GP (growth percent)” value ([20]; one dose 10 µM) was 9.04 and the TGI ([21]; 5-dose 0.01-100 µM) was 12.7 µM. The GI50 [21, 25] was 1.76 µM, the CC50 [21, 26] was greater than 100 µM and the “%GI” value ([21]; one dose 10 µM) was 113.52%. The “GP (growth percent)” value ([21]; one dose 10 µM) was −13.52, the TGI ([22]; 5-dose 0.01-100 µM) was 16.3 µM and the GI50 [22, 25] was 2.35 µM. For the same compound, the CC50 [22, 26] was greater than 100 µM, the “%GI” value ([22]; one dose 10 µM) was 67.39% and the “GP (growth percent)” value ([22]; one dose 10 µM) was 32.61. The TGI ([23]; 5-dose 0.01-100 µM) was 24.3 µM, the GI50 [23, 25] was 4 µM and the CC50 [23, 26] was greater than 100 µM. The “%GI” value ([23]; one dose 10 µM) was 67.92%, the “GP (growth percent)” value ([23]; one dose 10 µM) was 32.08 and the TGI ([24]; 5-dose 0.01-100 µM) was 16.9 µM. For the same compound, the GI50 ([24]; Homo sapiens, K562, 5-dose 0.01-100 µM) was 2.87 µM, the CC50 ([24]; Homo sapiens, K562, 5-dose 0.01-100 µM, read-out: LC50 (the source's name)) was greater than 100 µM and the “%GI” value ([24]; one dose 10 µM) was 90.75%. For the same compound, the “GP (growth percent)” value ([24]; one dose 10 µM) was 9.25.
